In article PMC11272821, “Mechanistic safety assessment via multi-omic characterisation of systemic pathway perturbations following in vivo MAT2A inhibition” (Archives of Toxicology, 2024):

Assays:
[1] = Rat plasma fraction unbound by rapid equilibrium dialysis; type: in vitro ADME
[2] = Plasma toxicokinetic analysis after twice daily oral dosing; type: in vivo; details: rat, n = 5
Procedure: All in vivo experimental procedures were conducted in accordance with United Kingdom legislation (Animals (Scientific Procedures) Act, 1986) and were compliant with the ARRIVE guidelines. 8–10 week old male (210–230 g) Crl:WI Han Wistar rats (Charles River Laboratories Ltd, UK) were acclimatised to the facility for 10 days and then randomised to groups based on bodyweight.
A whole blood sample (32 µL) was collected via a tail vein prick into a K2EDTA treated capillary tube, centrifuged at 1,500 g for 10 min at 4 °C, and plasma collected using a micropipette (non-EDTA Ref.no. 172292, Vitrex Medical A/S, Denmark). Samples were collected on Day 1 and Day 7 at 1 h, 2 h, 4 h, 8 h (pre-second dose), 10 h and 24 h post the first dose.
Calibration and quality control samples were prepared in rat plasma with a target concentration range for quantification of 0.1 – 100 µmol/L. Sample preparation: 8 µl of plasma were diluted in 92 µl of 5% (w/v) bovine serum albumin in phosphate buffer and gently shaken for 10 min before 5 min centrifugation at 2400 g at 4°C. 25 µL were transferred to new tubes and 150 µl of acetonitrile containing an internal standard were added for protein precipitation. After thorough mixing and centrifugation for 5 min at 2400 g and 4°C, 75 µl of supernatant were transferred into new tubes and diluted in 150 µL water/HCOOH (100:0.2, v/v) then thoroughly vortexed and again centrifuged for 5 min at 2400 g and 4°C. 1.5 µl of the supernatant were injected for LC-MS/MS analysis utilizing an Acquity UPLC BEH C18, 2.1x50 […], 1.7 µ column at 60° C. Mobile phase A: Acetonitrile/HCOOH (100/0.2, v/v) and B: water/HCCOH (100/0.2, v/v). Flow rate: 0.75 mL/min.

[3] = test system: 86 targets; assay: Secondary pharmacology profiling against 86 targets (Eurofins); details: BID dosing of 3, 10 or 30 mg/kg for 7 days
Procedure: (§1) Secondary pharmacology assays were performed at Eurofins using standard experimental techniques against a total of 86 targets across a broad pharmacological space. Assay details along with experimental protocols are described at https://www.eurofinsdiscoveryservices.com. […] Assays measuring substrate turnover or phosphorylation by isolated proteins were used for kinase and enzyme targets, allowing direct determination of the mode of action of the compounds. […] Assays were run in eight points concentration response mode with half log dilutions and IC50, EC50 or Ki (Cheng and Prusoff [1973]) values determined.

[4] = target: T1, 5-HT2B receptor (Homo sapiens, UniProt P41595); assay: Radioligand binding assay
T1 construct: Eurofins
Procedure: as §1

[5] = target: T2, 5-HT4 receptor (Homo sapiens, UniProt Q13639); assay: Radioligand binding assay
T2 construct: Eurofins
Procedure: as §1

[6] = target: T3, 5-HT7 receptor (Homo sapiens, UniProt P34969); assay: Radioligand binding assay
T3 construct: Eurofins
Procedure: as §1

[7] = target: T4, A2A adenosine receptor (Homo sapiens, UniProt P29274); assay: Radioligand binding assay
T4 construct: Eurofins
Procedure: as §1

[8] = target: T5, CB1 cannabinoid receptor (Homo sapiens, UniProt P21554); assay: Radioligand binding assay
T5 construct: purchased Eurofins
Procedure: as §1

[9] = target: T6, D1 dopamine receptor (Homo sapiens, UniProt P21728); assay: Radioligand binding assay
T6 construct: Eurofins
Procedure: as §1

[10] = target: T7, M2 muscarinic receptor (Homo sapiens, UniProt P08172); assay: Radioligand binding assay
T7 construct: Eurofins
T7 sequence (P08172 1-466): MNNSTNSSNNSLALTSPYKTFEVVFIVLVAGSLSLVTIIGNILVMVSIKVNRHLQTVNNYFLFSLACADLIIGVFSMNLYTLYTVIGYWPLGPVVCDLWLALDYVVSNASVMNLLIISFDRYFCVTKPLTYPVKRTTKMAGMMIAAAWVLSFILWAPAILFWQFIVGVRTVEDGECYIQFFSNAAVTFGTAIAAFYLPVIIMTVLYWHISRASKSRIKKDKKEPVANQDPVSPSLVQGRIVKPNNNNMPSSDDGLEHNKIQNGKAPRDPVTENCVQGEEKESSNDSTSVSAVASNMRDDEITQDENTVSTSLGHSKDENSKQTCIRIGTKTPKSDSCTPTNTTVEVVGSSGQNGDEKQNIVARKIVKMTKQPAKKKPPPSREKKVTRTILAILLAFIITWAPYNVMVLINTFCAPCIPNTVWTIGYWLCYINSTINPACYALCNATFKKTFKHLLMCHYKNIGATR
Procedure: as §1

[11] = target: T8, SST4 somatostatin receptor (Homo sapiens, UniProt P31391); assay: Radioligand binding assay
T8 construct: Eurofins
Procedure: as §1

[12] = target: T9, α1B adrenoceptor (Homo sapiens, UniProt P35368); assay: Radioligand binding assay
T9 construct: Eurofins
T9 sequence (P35368 1-520): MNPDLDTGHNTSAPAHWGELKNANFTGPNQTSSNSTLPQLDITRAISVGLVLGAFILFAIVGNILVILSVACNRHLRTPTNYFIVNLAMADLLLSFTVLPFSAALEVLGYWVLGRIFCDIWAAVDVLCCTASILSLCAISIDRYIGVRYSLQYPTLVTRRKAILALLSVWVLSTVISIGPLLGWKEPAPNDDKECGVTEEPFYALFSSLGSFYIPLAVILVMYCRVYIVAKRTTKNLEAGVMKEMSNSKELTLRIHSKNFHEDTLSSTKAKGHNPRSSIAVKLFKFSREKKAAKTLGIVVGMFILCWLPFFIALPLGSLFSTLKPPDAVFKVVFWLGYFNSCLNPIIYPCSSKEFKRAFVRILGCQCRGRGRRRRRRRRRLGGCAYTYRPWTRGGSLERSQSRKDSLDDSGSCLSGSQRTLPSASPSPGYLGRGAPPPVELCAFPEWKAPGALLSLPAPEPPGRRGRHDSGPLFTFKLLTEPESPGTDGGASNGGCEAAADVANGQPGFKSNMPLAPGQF
Procedure: as §1

T3 sequence (P34969 whole entry): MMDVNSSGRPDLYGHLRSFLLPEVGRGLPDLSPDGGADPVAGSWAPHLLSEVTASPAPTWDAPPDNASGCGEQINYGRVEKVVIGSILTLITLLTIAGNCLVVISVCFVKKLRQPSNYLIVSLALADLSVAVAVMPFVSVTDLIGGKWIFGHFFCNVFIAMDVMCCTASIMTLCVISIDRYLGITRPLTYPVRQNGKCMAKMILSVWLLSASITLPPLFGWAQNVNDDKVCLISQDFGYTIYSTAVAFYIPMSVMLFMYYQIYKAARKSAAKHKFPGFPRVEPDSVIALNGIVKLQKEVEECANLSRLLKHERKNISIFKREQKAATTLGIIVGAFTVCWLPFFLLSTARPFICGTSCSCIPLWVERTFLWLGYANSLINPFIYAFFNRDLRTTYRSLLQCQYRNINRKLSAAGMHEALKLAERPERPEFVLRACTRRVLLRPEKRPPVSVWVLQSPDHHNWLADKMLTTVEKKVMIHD
T1 sequence (P41595 whole entry): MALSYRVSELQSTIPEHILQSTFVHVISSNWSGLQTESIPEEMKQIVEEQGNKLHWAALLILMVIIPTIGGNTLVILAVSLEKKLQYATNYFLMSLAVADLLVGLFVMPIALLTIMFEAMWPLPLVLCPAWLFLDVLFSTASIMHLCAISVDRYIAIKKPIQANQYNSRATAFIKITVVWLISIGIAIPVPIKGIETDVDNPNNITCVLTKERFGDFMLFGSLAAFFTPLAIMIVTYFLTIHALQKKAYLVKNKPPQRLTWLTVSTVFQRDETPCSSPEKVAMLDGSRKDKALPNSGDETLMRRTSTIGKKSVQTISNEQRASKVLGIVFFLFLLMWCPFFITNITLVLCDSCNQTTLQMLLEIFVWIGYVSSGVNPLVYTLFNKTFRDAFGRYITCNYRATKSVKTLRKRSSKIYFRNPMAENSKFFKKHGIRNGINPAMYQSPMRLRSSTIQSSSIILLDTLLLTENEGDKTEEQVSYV
T8 sequence (P31391 whole entry): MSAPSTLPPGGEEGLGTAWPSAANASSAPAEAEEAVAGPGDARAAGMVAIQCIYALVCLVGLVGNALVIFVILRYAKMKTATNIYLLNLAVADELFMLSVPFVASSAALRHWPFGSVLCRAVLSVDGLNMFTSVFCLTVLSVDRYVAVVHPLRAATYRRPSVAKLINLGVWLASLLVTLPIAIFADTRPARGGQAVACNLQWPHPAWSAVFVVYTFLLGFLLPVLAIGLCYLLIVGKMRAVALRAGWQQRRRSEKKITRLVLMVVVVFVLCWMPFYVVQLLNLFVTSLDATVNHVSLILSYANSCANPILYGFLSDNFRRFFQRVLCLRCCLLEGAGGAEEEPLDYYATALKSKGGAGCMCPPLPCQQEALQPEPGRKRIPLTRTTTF
T4 sequence (P29274 whole entry): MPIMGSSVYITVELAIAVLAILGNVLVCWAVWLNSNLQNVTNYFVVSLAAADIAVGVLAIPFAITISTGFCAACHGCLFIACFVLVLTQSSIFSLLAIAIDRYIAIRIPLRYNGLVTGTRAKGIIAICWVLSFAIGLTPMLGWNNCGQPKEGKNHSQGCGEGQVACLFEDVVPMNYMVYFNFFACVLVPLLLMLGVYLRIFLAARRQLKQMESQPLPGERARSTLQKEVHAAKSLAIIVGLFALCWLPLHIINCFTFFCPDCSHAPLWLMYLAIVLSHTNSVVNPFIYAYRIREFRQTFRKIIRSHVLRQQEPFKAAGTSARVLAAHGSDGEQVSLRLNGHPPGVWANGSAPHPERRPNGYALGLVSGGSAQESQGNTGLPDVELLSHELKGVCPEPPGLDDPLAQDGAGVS
T2 sequence (Q13639 whole entry): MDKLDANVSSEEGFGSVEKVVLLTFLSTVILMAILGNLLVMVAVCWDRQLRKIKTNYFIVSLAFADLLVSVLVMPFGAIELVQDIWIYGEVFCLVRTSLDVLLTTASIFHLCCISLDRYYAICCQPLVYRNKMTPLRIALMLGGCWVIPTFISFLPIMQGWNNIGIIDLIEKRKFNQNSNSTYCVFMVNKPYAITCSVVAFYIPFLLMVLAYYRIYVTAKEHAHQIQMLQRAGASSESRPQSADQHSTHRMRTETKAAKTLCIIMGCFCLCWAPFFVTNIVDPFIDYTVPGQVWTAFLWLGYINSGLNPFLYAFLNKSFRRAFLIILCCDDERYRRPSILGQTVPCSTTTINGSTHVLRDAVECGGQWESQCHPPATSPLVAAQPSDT
T6 sequence (P21728 whole entry): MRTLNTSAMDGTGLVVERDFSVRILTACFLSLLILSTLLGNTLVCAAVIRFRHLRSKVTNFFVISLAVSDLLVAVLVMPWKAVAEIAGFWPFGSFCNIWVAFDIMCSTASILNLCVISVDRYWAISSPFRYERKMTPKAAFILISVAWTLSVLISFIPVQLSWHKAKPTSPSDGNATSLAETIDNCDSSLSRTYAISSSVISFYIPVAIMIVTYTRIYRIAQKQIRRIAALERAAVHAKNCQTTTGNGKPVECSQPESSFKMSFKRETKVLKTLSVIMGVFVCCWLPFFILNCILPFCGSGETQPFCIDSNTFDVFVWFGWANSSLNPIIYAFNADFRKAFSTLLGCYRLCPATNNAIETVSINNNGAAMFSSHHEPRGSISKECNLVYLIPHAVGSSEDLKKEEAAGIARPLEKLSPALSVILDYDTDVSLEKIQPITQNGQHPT
T5 sequence (P21554 whole entry): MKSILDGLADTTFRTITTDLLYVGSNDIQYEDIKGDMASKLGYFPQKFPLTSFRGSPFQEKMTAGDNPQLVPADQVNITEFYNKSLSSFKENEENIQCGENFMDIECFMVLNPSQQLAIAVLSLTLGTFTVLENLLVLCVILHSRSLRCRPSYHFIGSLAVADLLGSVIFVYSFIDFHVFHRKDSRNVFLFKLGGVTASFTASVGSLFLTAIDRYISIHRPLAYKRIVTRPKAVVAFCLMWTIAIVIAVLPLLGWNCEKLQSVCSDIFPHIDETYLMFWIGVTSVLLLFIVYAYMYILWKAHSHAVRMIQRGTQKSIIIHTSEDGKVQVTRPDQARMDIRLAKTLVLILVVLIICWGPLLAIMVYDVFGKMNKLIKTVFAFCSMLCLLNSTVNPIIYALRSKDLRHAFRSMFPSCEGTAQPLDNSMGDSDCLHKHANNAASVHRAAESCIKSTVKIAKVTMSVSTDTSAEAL

Cn1cc2cc(-c3cc4[nH]nc(C5CC5)c4n(-c4ccc(OC(F)F)cc4)c3=O)ccc2n1 [AZ’9567]
rat plasma fraction unbound [1]: 0.00614 | Free AUC24h ([2]; 3 mg/kg BID, day 1, mean ± SD): 0.69 ± 0.07 µM·h | Free Cmax ([2]; 3 mg/kg BID, day 1, mean ± SD): 40 ± 4 nM | Free Cmin24h ([2]; 3 mg/kg BID, day 1, mean ± SD): 10 ± 1 nM | Free AUC24h ([2]; 3 mg/kg BID, day 7, mean ± SD): 0.76 ± 0.11 µM·h | Free Cmax ([2]; 3 mg/kg BID, day 7, mean ± SD): 50 ± 10 nM | Free Cmin24h ([2]; 3 mg/kg BID, day 7, mean ± SD): 10 ± 2 nM | Free AUC24h ([2]; 10 mg/kg BID, day 1, mean ± SD): 2.6 ± 1.1 µM·h | Free Cmax ([2]; 10 mg/kg BID, day 1, mean ± SD): 210 ± 60 nM | Free Cmin24h ([2]; 10 mg/kg BID, day 1, mean ± SD): 40 ± 20 nM | Free AUC24h ([2]; 10 mg/kg BID, day 7, mean ± SD): 3.9 ± 0.70 µM·h | Free Cmax ([2]; 10 mg/kg BID, day 7, mean ± SD): 270 ± 110 nM | Free Cmin24h ([2]; 10 mg/kg BID, day 7, mean ± SD): 80 ± 30 nM | Free AUC24h ([2]; 30 mg/kg BID, day 1, mean ± SD): 12 ± 1.1 µM·h | Free Cmax ([2]; 30 mg/kg BID, day 1, mean ± SD): 870 ± 190 nM | Free Cmin24h ([2]; 30 mg/kg BID, day 1, mean ± SD): 140 ± 40 nM | Free AUC24h ([2]; 30 mg/kg BID, day 7, mean ± SD): 9.9 ± 2.2 µM·h | Free Cmax ([2]; 30 mg/kg BID, day 7, mean ± SD): 680 ± 190 nM | Free Cmin24h ([2]; 30 mg/kg BID, day 7, mean ± SD): 150 ± 50 nM | cover of secondary pharmacology targets by plasma free Cmax in rats [3]: none of these targets was covered | Ki [4]: 32.4 µM | Ki [5]: 10.3 µM | Ki [6]: 2.9 µM | Ki [7]: 2.2 µM | Ki [8]: 30.3 µM | Ki [9]: 35 µM | Ki [10]: 1.8 µM | Ki [11]: 50.6 µM | Ki [12]: 28.9 µM
